This test has as its system JAK1-dependent STAT6 phosphorylation downstream of IL-13 stimulation in TF-1 human erythroleukemia cells. Put plainly: cells. The note with it: TF-1, read-out: IL-13-pSTAT6 IC50.
Regarding `CN1CCC(C2CCCCN2C(=O)c2ccc(Nc3nc4c(C5=CCN(C(=O)CCC(F)(F)F)CC5)cccn4n3)cc2)CC1` (stereo not drawn) [Example 2-149, 4,4,4-trifluoro-1-[4-[2-[4-[2-(1-methyl-4-piperidyl)piperidine-1-carbonyl]anilino]-[1,2,4]triazolo[1,5-a]pyridin-8-yl]-3,6-dihydro-2H-pyridin-1-yl]butane-1-one], the IC50 was 10.7 nM.
`CN1CCC(N(C(=O)c2ccc(Nc3nc4c(C5=CCN(C(=O)CCC(F)(F)F)CC5)cccn4n3)cc2)C2CC2)CC1` [Example 2-150, N-cyclopropyl-N-(1-methyl-4-piperidyl)-4-[[8-[1-(4,4,4-trifluorobutanoyl)-3,6-dihydro-2H-pyridin-4-yl]-[1,2,4]triazolo[1,5-a]pyridin-2-yl]amino]benzamide]: the IC50 came to 8.3 nM.
Take `O=C(CCC(F)(F)F)N1CC=C(c2cccn3nc(Nc4ccc(C(=O)N5CCN6CCCCC6C5)cc4)nc23)CC1` (stereo not drawn) [Example 2-151, 1-[4-[2-[4-(1,3,4,6,7,8,9,9a-octahydropyrido[1,2-a]pyrazine-2-carbonyl)anilino]-[1,2,4]triazolo[1,5-a]pyridin-8-yl]-3,6-dihydro-2H-pyridin-1-yl]-4,4,4-trifluoro-butan-1-one]: the IC50 was found to be 5.7 nM.
Next, `CN(CCc1ccccn1)C(=O)c1ccc(Nc2nc3c(C4=CCN(C(=O)CCC(F)(F)F)CC4)cccn3n2)cc1` [Example 2-152, N-methyl-N-[2-(2-pyridyl)ethyl]-4-[[8-[1-(4,4,4-trifluorobutanoyl)-3,6-dihydro-2H-pyridin-4-yl]-[1,2,4]triazolo[1,5-a]pyridin-2-yl]amino]benzamide]: 9.3 nM; `O=C(CCC(F)(F)F)N1CC=C(c2cccn3nc(Nc4ccc(C(=O)N5CCN(CCO)CC5)cc4)nc23)CC1` [Example 2-153, 4,4,4-trifluoro-1-[4-[2-[4-[4-(2-hydroxyethyl)piperazine-1-carbonyl]anilino]-[1,2,4]triazolo[1,5-a]pyridin-8-yl]-3,6-dihydro-2H-pyridin-1-yl]butan-1-one]: 28.6 nM.
Take `O=C(CCC(F)(F)F)N1CC=C(c2cccn3nc(Nc4ccc(C(=O)N5CCC(c6cc7cccnc7[nH]6)CC5)cc4)nc23)CC1` [Example 2-155, 4,4,4-trifluoro-1-[4-[2-[4-[4-(1H-pyrrolo[2,3-b]pyridin-2-yl)piperidine-1-carbonyl]anilino]-[1,2,4]triazolo[1,5-a]pyridin-8-yl]-3,6-dihydro-2H-pyridin-1-yl]butan-1-one]: the 50% inhibitory concentration (IC50) is 132 nM.
For `O=C(CCC(F)(F)F)N1CC=C(c2cccn3nc(Nc4ccc(C(=O)N5CCC(c6ccccn6)CC5)cc4)nc23)CC1` [Example 2-156, 4,4,4-trifluoro-1-[4-[2-[4-[4-(2-pyridyl)piperidine-1-carbonyl]anilino]-[1,2,4]triazolo[1,5-a]pyridin-8-yl]-3,6-dihydro-2H-pyridin-1-yl]butan-1-one], the IC50 is 8.3 nM.
As for `CC1CN(C2CCN(C(=O)c3ccc(Nc4nc5c(C6=CCN(C(=O)CCC(F)(F)F)CC6)cccn5n4)cc3)CC2)CC(C)O1` (stereo not drawn) [Example 2-157, 1-[4-[2-[4-[4-(2,6-dimethylmorpholin-4-yl)piperidine-1-carbonyl]anilino]-[1,2,4]triazolo[1,5-a]pyridin-8-yl]-3,6-dihydro-2H-pyridin-1-yl]-4,4,4-trifluoro-butan-1-one], the figure is 4.7 nM; as for `CN(C)[C@H]1CCN(C(=O)c2ccc(Nc3nc4c(C5=CCN(C(=O)CCC(F)(F)F)CC5)cccn4n3)cc2)C1` [Example 2-158, 1-[4-[2-[4-[(3S)-3-(dimethylamino)pyrrolidine-1-carbonyl]anilino]-[1,2,4]triazolo[1,5-a]pyridin-8-yl]-3,6-dihydro-2H-pyridin-1-yl]-4,4,4-trifluoro-butan-1-one], 7.3 nM.
